# Data from patent US9718790B2, “Triazine derivative and pharmaceutical composition having an analgesic activity comprising the same” (SHIONOGI & CO., LTD., priority 2010, dated 2017).
# Biological target: human P2X3 receptor (Homo sapiens (Human), UniProt P56373)
# Assay: Evaluation of human P2X3 receptor inhibitory activity (Fluo-3 calcium fluorescence, FDSS 3000, ATP stimulation);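 also: stimulus was 50 nM ATP with fluorescence followed for 3 min, and the response per well was peak post-ATP fluorescence divided by the reading at measurement start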
# Assay type: cell-based
# Details: C6BU-1 cells stably expressing human P2X3 receptor
# Chain of human P2X3 receptor (P56373 whole entry): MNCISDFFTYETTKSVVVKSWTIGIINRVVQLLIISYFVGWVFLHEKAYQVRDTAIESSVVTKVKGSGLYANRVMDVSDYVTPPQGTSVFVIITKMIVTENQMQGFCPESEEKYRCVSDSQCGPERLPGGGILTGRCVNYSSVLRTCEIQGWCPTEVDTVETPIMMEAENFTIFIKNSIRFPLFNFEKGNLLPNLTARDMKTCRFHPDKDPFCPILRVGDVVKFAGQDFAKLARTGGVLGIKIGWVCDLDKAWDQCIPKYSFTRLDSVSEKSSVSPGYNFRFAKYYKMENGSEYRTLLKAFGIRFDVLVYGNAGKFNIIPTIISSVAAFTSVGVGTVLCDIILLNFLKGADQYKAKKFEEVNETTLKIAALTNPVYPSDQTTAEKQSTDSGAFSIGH
smiles,measurement,value
COC(=O)[C@@H](C)Cn1c(=O)[nH]/c(=N\c2ccc3c(c2)CCO3)n(Cc2ccc(Cl)cc2)c1=O [Compound I-0770],IC50,405 nM
C[C@@H](Cn1c(=O)[nH]/c(=N\c2ccc3c(c2)CCC3)n(Cc2ccc(Cl)cc2)c1=O)C(=O)O [Compound I-0772],IC50,477 nM
C[C@@H](Cn1c(=O)[nH]/c(=N\c2ccc3c(c2)CCO3)n(Cc2ccc(Cl)cc2)c1=O)C(=O)O [Compound I-0773],IC50,790 nM
Cc1cc(/N=c2\[nH]c(=O)n([C@H]3CCOC3=O)c(=O)n2Cc2ccc(Cl)cc2)ccc1OC(C)C [Compound I-0775],IC50,41 nM
COC(=O)[C@@H](C)Cn1c(=O)[nH]/c(=N\c2cccc(C(C)C)c2)n(Cc2ccc(Cl)cc2)c1=O [Compound I-0777],IC50,116 nM
CCOC(=O)C(CNc1ccc(OC(C)C)c(C)c1)Cn1c(=O)[nH]/c(=N\c2ccc(OC(C)C)c(C)c2)n(Cc2ccc(Cl)cc2)c1=O (centres unmarked) [Compound I-0778],IC50,84 nM
C=C(Cn1c(=O)[nH]/c(=N\c2ccc(OC(C)C)c(C)c2)n(Cc2ccc(Cl)cc2)c1=O)C(=O)OCC [Compound I-0779],IC50,16 nM
COC(=O)c1cccc(Cn2c(=O)[nH]/c(=N\c3ccc(OC(C)C)c(C)c3)n(Cc3ccc(Cl)cc3)c2=O)n1 [Compound I-0781],IC50,9 nM
CC[C@@H](CC(=O)OC)n1c(=O)[nH]/c(=N\c2ccc(OC(C)C)c(C)c2)n(Cc2ccc(Cl)cc2)c1=O [Compound I-0782],IC50,192 nM
CC[C@H](CC(=O)OC)n1c(=O)[nH]/c(=N\c2ccc(OC(C)C)c(C)c2)n(Cc2ccc(Cl)cc2)c1=O [Compound I-0783],IC50,65 nM
CCOC(=O)c1cc(Cn2c(=O)[nH]/c(=N\c3ccc(OC(C)C)c(C)c3)n(Cc3ccc(Cl)cc3)c2=O)on1 [Compound I-0784],IC50,22 nM
CCOC(=O)c1nc(Cn2c(=O)[nH]/c(=N\c3ccc(OC(C)C)c(C)c3)n(Cc3ccc(Cl)cc3)c2=O)cs1 [Compound I-0785],IC50,11 nM
CNC(=O)CCCn1c(=O)[nH]/c(=N\c2ccc(OC(C)C)c(C)c2)n(Cc2ccc(Cl)cc2)c1=O [Compound I-0786],IC50,15 nM
Cc1cc(/N=c2\[nH]c(=O)n(CCCC(=O)N3CCOCC3)c(=O)n2Cc2ccc(Cl)cc2)ccc1OC(C)C [Compound I-0787],IC50,24 nM
Cc1cc(/N=c2\[nH]c(=O)n(CCCC(=O)NCCO)c(=O)n2Cc2ccc(Cl)cc2)ccc1OC(C)C [Compound I-0788],IC50,32 nM
COCCOc1ccc(/N=c2\[nH]c(=O)n(C[C@H](C)C(=O)O)c(=O)n2Cc2ccc(Cl)cc2)cc1Cl [Compound I-0789],IC50,181 nM
COC(=O)[C@@H](C)Cn1c(=O)[nH]/c(=N\c2ccc3nc(C)ccc3c2)n(Cc2ccc(Cl)cc2)c1=O [Compound I-0790],IC50,13 nM
COC(=O)[C@@H](C)Cn1c(=O)[nH]/c(=N\c2ccc3c(c2)CCCC3)n(Cc2ccc(Cl)cc2)c1=O [Compound I-0791],IC50,266 nM
CC(C)c1cccc(/N=c2\[nH]c(=O)n(C[C@H](C)C(=O)O)c(=O)n2Cc2ccc(Cl)cc2)c1 [Compound I-0792],IC50,170 nM
CC(C)Oc1ccc(/N=c2\[nH]c(=O)n(C[C@H](C)C(=O)O)c(=O)n2Cc2ccccc2)cc1Cl [Compound I-0794],IC50,168 nM
Cc1cc(/N=c2\[nH]c(=O)n(C[C@H](C)C(=O)O)c(=O)n2Cc2ccccc2)ccc1OC(C)C [Compound I-0795],IC50,724 nM
COC(=O)[C@@H](C)Cn1c(=O)[nH]/c(=N\c2ccc(OC)c(C(F)(F)F)c2)n(Cc2ccc(Cl)cc2)c1=O [Compound I-0796],IC50,386 nM
COc1ccc(/N=c2\[nH]c(=O)n(C[C@H](C)C(=O)O)c(=O)n2Cc2ccc(Cl)cc2)cc1C(F)(F)F [Compound I-0797],IC50,701 nM
CC[C@@H](CC(=O)O)n1c(=O)[nH]/c(=N\c2ccc(OC(C)C)c(C)c2)n(Cc2ccc(Cl)cc2)c1=O [Compound I-0798],IC50,465 nM
CC[C@H](CC(=O)O)n1c(=O)[nH]/c(=N\c2ccc(OC(C)C)c(C)c2)n(Cc2ccc(Cl)cc2)c1=O [Compound I-0799],IC50,281 nM
Cc1cc(/N=c2\[nH]c(=O)n(Cc3cccc(C(=O)O)n3)c(=O)n2Cc2ccc(Cl)cc2)ccc1OC(C)C [Compound I-0801],IC50,10 nM
Cc1cc(/N=c2\[nH]c(=O)n(Cc3cc(C(=O)O)no3)c(=O)n2Cc2ccc(Cl)cc2)ccc1OC(C)C [Compound I-0802],IC50,21 nM
Cc1cc(/N=c2\[nH]c(=O)n(C(C)(C)CC(=O)O)c(=O)n2Cc2ccc(Cl)cc2)ccc1OC(C)C [Compound I-0804],IC50,132 nM
CCOC(=O)CC(C)(C)n1c(=O)[nH]/c(=N\c2ccc(OC(C)C)c(C)c2)n(Cc2ccc(Cl)cc2)c1=O [Compound I-0805],IC50,29 nM
"COC(=O)[C@H](Cn1c(=O)[nH]/c(=N\c2ccc(OC(C)C)c(C)c2)n(Cc2ccc(Cl)cc2)c1=O)OC [Compound I-0806, (S)-1-(4-chlorobenzyl)-6-(3-mehyl-4-isopropoxyphenylimino)-3-(2-methoxycarbonyl-2-methoxy-ethyl)-1,3,5-triazinane-2,4-dion]",IC50,12 nM
"CO[C@@H](Cn1c(=O)[nH]/c(=N\c2ccc(OC(C)C)c(C)c2)n(Cc2ccc(Cl)cc2)c1=O)C(=O)O [Compound I-0807, (S)-1-(4-chlorobenzyl)-6-(3-mehyl-4-isopropoxyphenylimino)-3-(2-hydroxycarbonyl-2-methoxyethyl)-1,3,5-triazinane-2,4-dion]",IC50,13 nM
Cc1cc(/N=c2\[nH]c(=O)n([C@@H]3CCOC3=O)c(=O)n2Cc2ccc(Cl)cc2)ccc1OC(C)C [Compound I-0808],IC50,203 nM
COC(=O)[C@H](C)[C@H](C)n1c(=O)[nH]/c(=N\c2ccc(OC(C)C)c(C)c2)n(Cc2ccc(Cl)cc2)c1=O [Compound I-0809],IC50,34 nM
CCOC(=O)CC(C)(C)n1c(=O)[nH]/c(=N\c2ccc(OC(C)C)c(Cl)c2)n(Cc2ccc(Cl)cc2)c1=O [Compound I-0810],IC50,16 nM
COC(=O)[C@@H](C)[C@@H](C)n1c(=O)[nH]/c(=N\c2ccc(OC(C)C)c(C)c2)n(Cc2ccc(Cl)cc2)c1=O [Compound I-0811],IC50,40 nM
COC(=O)[C@@H](C)Cn1c(=O)[nH]/c(=N\c2ccc(OCC(C)C)cc2)n(Cc2ccc(C)cc2)c1=O [Compound I-0812],IC50,33 nM
CCCCOc1ccc(/N=c2\[nH]c(=O)n(C[C@H](C)C(=O)OC)c(=O)n2Cc2ccc(Cl)cc2)cc1 [Compound I-0814],IC50,17 nM
CCc1ccc(/N=c2\[nH]c(=O)n(C[C@H](C)C(=O)OC)c(=O)n2Cc2ccc(Cl)cc2)cc1C [Compound I-0815],IC50,189 nM
CCCCOc1ccc(/N=c2\[nH]c(=O)n(C[C@H](C)C(=O)OC)c(=O)n2Cc2ccc(C)cc2)cc1 [Compound I-0816],IC50,37 nM
CC(C)Oc1ccc(/N=c2\[nH]c(=O)n(C(C)(C)CC(=O)O)c(=O)n2Cc2ccc(Cl)cc2)cc1Cl [Compound I-0817],IC50,27 nM
CCCCOc1ccc(/N=c2\[nH]c(=O)n(C[C@H](C)C(=O)O)c(=O)n2Cc2ccc(Cl)cc2)cc1 [Compound I-0819],IC50,22 nM
CCCCOc1ccc(/N=c2\[nH]c(=O)n(C[C@H](C)C(=O)O)c(=O)n2Cc2ccc(C)cc2)cc1 [Compound I-0820],IC50,35 nM
CCCOc1ccc(/N=c2\[nH]c(=O)n(C(C)(C)CC(=O)OCC)c(=O)n2Cc2ccc(Cl)cc2)cc1 [Compound I-0821],IC50,50 nM
CCOC(=O)CC(C)(C)n1c(=O)[nH]/c(=N\c2ccc(OC(C)C)c(F)c2)n(Cc2ccc(Cl)cc2)c1=O [Compound I-0822],IC50,26 nM
